Experimental data published in PubChem BioAssay (NCI).
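How tested: cells in 96-well plates exposed to compound for 48 hours at five concentrations. At the TGI there is no net growth.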

Experiments:
Test in all cases: NCI-60 cell line screen, 48 h
[1] = tested on: 786-0 renal
[2] = tested on: A498 renal
[3] = tested on: A549 NSCLC
[4] = tested on: ACHN renal
[5] = tested on: BT-549 breast
[6] = tested on: CAKI-1 renal
[7] = tested on: CCRF-CEM leukemia
[8] = tested on: COLO 205 colon
[9] = tested on: DU-145 prostate
[10] = tested on: EKVX NSCLC
[11] = tested on: HCC-2998 colon
[12] = tested on: HCT-116 colon
[13] = tested on: HCT-15 colon
[14] = tested on: HL-60(TB) leukemia
[15] = tested on: HOP-62 NSCLC
[16] = tested on: HOP-92 NSCLC
[17] = tested on: HS 578T breast
[18] = tested on: HT29 colon
[19] = tested on: IGROV1 ovarian
[20] = tested on: K-562 leukemia
[21] = tested on: KM12 colon
[22] = tested on: LOX IMVI melanoma
[23] = tested on: MALME-3M melanoma
[24] = tested on: MCF7 breast
[25] = tested on: MDA-MB-231 breast
[26] = tested on: MDA-MB-435
[27] = tested on: MDA-N
[28] = tested on: MOLT-4 leukemia
[29] = tested on: NCI-H226 lung
[30] = tested on: NCI-H23 lung
[31] = tested on: NCI-H460 lung
[32] = tested on: NCI-H522 lung
[33] = tested on: NCI/ADR-RES ovarian
[34] = tested on: OVCAR-3 ovarian
[35] = tested on: OVCAR-4 ovarian
[36] = tested on: OVCAR-5 ovarian
[37] = tested on: OVCAR-8 ovarian
[38] = tested on: PC-3 prostate
[39] = tested on: RPMI-8226 leukemia
[40] = tested on: RXF 393 renal
[41] = tested on: SF-268 CNS
[42] = tested on: SF-295 CNS
[43] = tested on: SF-539 CNS
[44] = tested on: SK-MEL-28 melanoma
[45] = tested on: SK-MEL-5 melanoma
[46] = tested on: SN12C renal
[47] = tested on: SNB-19 CNS
[48] = tested on: SNB-75 CNS
[49] = tested on: SR leukemia
[50] = tested on: SW-620 colon
[51] = tested on: TK-10 renal
[52] = tested on: U251 CNS
[53] = tested on: UACC-257 melanoma
[54] = tested on: UO-31 renal
[55] = tested on: M14 melanoma
[56] = tested on: SK-MEL-2 melanoma
[57] = tested on: SK-OV-3 ovarian
[58] = tested on: UACC-62 melanoma

O=[N+]([O-])c1ccc2c(c1)Sc1ccccc1N2
TGI [1]: > 100 µM
TGI [2]: > 100 µM
TGI [3]: > 100 µM
TGI [4]: > 100 µM
TGI [5]: > 100 µM
TGI [6]: > 100 µM
TGI [7]: > 100 µM
TGI [8]: > 100 µM
TGI [9]: > 100 µM
TGI [10]: > 100 µM
TGI [11]: > 100 µM
TGI [12]: > 100 µM
TGI [13]: > 100 µM
TGI [14]: > 100 µM
TGI [15]: > 100 µM
TGI [16]: > 100 µM
TGI [17]: > 100 µM
TGI [18]: > 100 µM
TGI [19]: > 100 µM
TGI [20]: > 100 µM
TGI [21]: > 100 µM
TGI [22]: > 100 µM
TGI [23]: > 100 µM
TGI [24]: > 100 µM
TGI [25]: > 100 µM
TGI [26]: > 100 µM
TGI [27]: > 100 µM
TGI [28]: > 100 µM
TGI [29]: > 100 µM
TGI [30]: > 100 µM
TGI [31]: > 100 µM
TGI [32]: > 100 µM
TGI [33]: > 100 µM
TGI [34]: > 100 µM
TGI [35]: > 100 µM
TGI [36]: > 100 µM
TGI [37]: > 100 µM
TGI [38]: > 100 µM
TGI [39]: > 100 µM
TGI [40]: > 100 µM
TGI [41]: > 100 µM
TGI [42]: > 100 µM
TGI [43]: > 100 µM
TGI [44]: > 100 µM
TGI [45]: > 100 µM
TGI [46]: > 100 µM
TGI [47]: > 100 µM
TGI [48]: 81.9 µM
TGI [49]: > 100 µM
TGI [50]: > 100 µM
TGI [51]: > 100 µM
TGI [52]: > 100 µM
TGI [53]: > 100 µM
TGI [54]: > 100 µM

C[C@@]1(Br)C[C@@](C)(Cl)[C@@H](Br)CC1/C=C/Cl (some centres not stated)
TGI [1]: 30.2 µM
TGI [3]: 61.7 µM
TGI [4]: 32 µM
TGI [5]: 36 µM
TGI [7]: 27.7 µM
TGI [8]: 29 µM
TGI [11]: > 100 µM
TGI [12]: 22.9 µM
TGI [13]: > 100 µM
TGI [15]: 30.7 µM
TGI [17]: 30.6 µM
TGI [18]: 29.6 µM
TGI [19]: 86.1 µM
TGI [20]: > 100 µM
TGI [21]: 29.6 µM
TGI [22]: 31.4 µM
TGI [55]: 33.2 µM
TGI [24]: 31.7 µM
TGI [25]: 36.2 µM
TGI [26]: 39.2 µM
TGI [27]: 29.7 µM
TGI [28]: 33.8 µM
TGI [29]: 22.8 µM
TGI [30]: > 100 µM
TGI [31]: > 100 µM
TGI [33]: 25.8 µM
TGI [34]: 28.4 µM
TGI [35]: > 100 µM
TGI [36]: 29.1 µM
TGI [37]: 29.5 µM
TGI [38]: 29.3 µM
TGI [39]: 73.7 µM
TGI [41]: 23 µM
TGI [42]: 27.4 µM
TGI [43]: 31 µM
TGI [56]: 33.2 µM
TGI [44]: 53.7 µM
TGI [45]: 26.4 µM
TGI [57]: 37 µM
TGI [46]: 28.2 µM
TGI [47]: 45.3 µM
TGI [48]: 25.4 µM
TGI [49]: 41 µM
TGI [50]: 91.8 µM
TGI [51]: 38 µM
TGI [52]: 42.6 µM
TGI [53]: 37.3 µM
TGI [54]: 37.4 µM

CC(C)OC(=O)C1=C2c3ncccc3C(=O)N2[C@@H](Cl)[C@H](Cl)[C@H]1Cl
TGI [1]: > 100 µM
TGI [2]: > 100 µM
TGI [3]: > 100 µM
TGI [4]: > 100 µM
TGI [5]: > 100 µM
TGI [6]: > 100 µM
TGI [8]: > 100 µM
TGI [9]: > 100 µM
TGI [10]: > 100 µM
TGI [11]: > 100 µM
TGI [12]: > 100 µM
TGI [13]: > 100 µM
TGI [14]: > 100 µM
TGI [15]: > 100 µM
TGI [16]: > 100 µM
TGI [17]: > 100 µM
TGI [18]: > 100 µM
TGI [19]: > 100 µM
TGI [20]: > 100 µM
TGI [21]: > 100 µM
TGI [22]: > 100 µM
TGI [55]: > 100 µM
TGI [23]: > 100 µM
TGI [24]: > 100 µM
TGI [25]: > 100 µM
TGI [26]: > 100 µM
TGI [27]: > 100 µM
TGI [28]: > 100 µM
TGI [29]: > 100 µM
TGI [30]: > 100 µM
TGI [31]: > 100 µM
TGI [32]: > 100 µM
TGI [33]: > 100 µM
TGI [34]: > 100 µM
TGI [35]: > 100 µM
TGI [36]: > 100 µM
TGI [37]: > 100 µM
TGI [38]: > 100 µM
TGI [39]: > 100 µM
TGI [40]: > 100 µM
TGI [41]: > 100 µM
TGI [42]: > 100 µM
TGI [43]: > 100 µM
TGI [56]: > 100 µM
TGI [44]: > 100 µM
TGI [45]: > 100 µM
TGI [46]: 85.9 µM
TGI [47]: > 100 µM
TGI [49]: 93.8 µM
TGI [50]: > 100 µM
TGI [51]: > 100 µM
TGI [52]: > 100 µM
TGI [53]: > 100 µM
TGI [58]: > 100 µM
TGI [54]: > 100 µM

CC(=O)Nc1ccc(S(=O)(=O)Nc2nc(-c3ccc(Cl)cc3)cc(N3N=C(c4ccc(Br)cc4)CC3c3ccccc3)n2)cc1 (configuration not stated)
TGI [1]: 44 µM
TGI [3]: 31.5 µM
TGI [4]: 58.3 µM
TGI [5]: 34 µM
TGI [7]: 90.3 µM
TGI [8]: 27.1 µM
TGI [9]: 62.4 µM
TGI [10]: 26.5 µM
TGI [12]: 42.7 µM
TGI [13]: 31.9 µM
TGI [14]: 38.1 µM
TGI [15]: 35.3 µM
TGI [16]: 32.4 µM
TGI [17]: 31 µM
TGI [18]: 28.3 µM
TGI [19]: 24.1 µM
TGI [20]: 23.3 µM
TGI [21]: 40.4 µM
TGI [22]: 29.5 µM
TGI [55]: 43 µM
TGI [23]: 40.7 µM
TGI [24]: 16.6 µM
TGI [25]: 28.6 µM
TGI [26]: 19.6 µM
TGI [27]: 29.8 µM
TGI [28]: 39.5 µM
TGI [29]: 31.8 µM
TGI [30]: 41.2 µM
TGI [31]: 44.3 µM
TGI [32]: 31 µM
TGI [33]: 34.4 µM
TGI [34]: 8.46 µM
TGI [35]: 30 µM
TGI [36]: 27.8 µM
TGI [37]: 33.3 µM
TGI [38]: 36.1 µM
TGI [39]: 37.5 µM
TGI [40]: 39.7 µM
TGI [42]: 31.5 µM
TGI [43]: 31.1 µM
TGI [56]: 30.5 µM
TGI [44]: 35.1 µM
TGI [57]: 29.9 µM
TGI [46]: 32.3 µM
TGI [47]: 33.8 µM
TGI [49]: 56.6 µM
TGI [50]: 52.5 µM
TGI [51]: 33.5 µM
TGI [52]: 32.1 µM
TGI [53]: 37.3 µM
TGI [58]: 25.2 µM
TGI [54]: 30.5 µM

COc1ccc(C(=O)NCCC2CN(S(=O)(=O)C(F)(F)F)c3ccccc32)c(OC)c1 (configuration not stated)
TGI [1]: > 100 µM
TGI [2]: > 100 µM
TGI [3]: > 100 µM
TGI [4]: > 100 µM
TGI [6]: > 100 µM
TGI [7]: 70.3 µM
TGI [8]: > 100 µM
TGI [9]: > 100 µM
TGI [10]: > 100 µM
TGI [11]: > 100 µM
TGI [12]: > 100 µM
TGI [13]: > 100 µM
TGI [15]: > 100 µM
TGI [16]: > 100 µM
TGI [17]: > 100 µM
TGI [18]: 73.8 µM
TGI [19]: > 100 µM
TGI [20]: > 100 µM
TGI [21]: 71.3 µM
TGI [55]: > 100 µM
TGI [23]: 35.3 µM
TGI [24]: > 100 µM
TGI [25]: > 100 µM
TGI [26]: > 100 µM
TGI [27]: > 100 µM
TGI [28]: > 100 µM
TGI [30]: > 100 µM
TGI [31]: > 100 µM
TGI [32]: 46.8 µM
TGI [33]: 87.2 µM
TGI [34]: > 100 µM
TGI [35]: > 100 µM
TGI [36]: > 100 µM
TGI [38]: > 100 µM
TGI [39]: > 100 µM
TGI [40]: > 100 µM
TGI [42]: > 100 µM
TGI [56]: > 100 µM
TGI [44]: > 100 µM
TGI [45]: 43.6 µM
TGI [57]: > 100 µM
TGI [47]: > 100 µM
TGI [49]: > 100 µM
TGI [50]: > 100 µM
TGI [52]: > 100 µM
TGI [53]: > 100 µM
TGI [58]: 80.1 µM
TGI [54]: > 100 µM
